In patent US20220265644A1, “FIXED DOSE COMBINATION DRUG FOR THE TREATMENT OF MALARIA” (priority 2020, published 2022):

Legend:
P. vivax [1] = assay: Synriam Phase III, N=317, randomized, open label, multi-centric, uncomplicated P. vivax malaria; assay type: in vivo; conditions: Adults, Children >12 - 65 Y
P. vivax [2] = assay: Synriam Phase III, N=164, randomized, open label, multi-centric, uncomplicated P. vivax malaria; assay type: in vivo; conditions: Children 6 months - 12 Y
[3] = test system: early ring stages from artemisinin-resistant and artemisinin-sensitive parasites (P. falciparum); assay: Ring Stage Assay (RSA) as per WHO's recommendation; assay type: cell-based; conditions: at 700 nM

Compound | Proportion of aparasitemic & afebrile patients at 72 h (%) ITT (P. vivax [1]; 72 h, ITT) [%] | Proportion of aparasitemic & afebrile patients at 72 h (%) PP (P. vivax [1]; 72 h, PP) [%] | FCT Median (h) (P. vivax [1]; India) [vs. 24 h] | PCT Median (P. vivax [1]; India) [h] | Proportion of aparasitemic & afebrile patients at 72 h (%) ITT (P. vivax [2]; 72 h, ITT) [%] | Proportion of aparasitemic & afebrile patients at 72 h (%) PP (P. vivax [2]; 72 h, PP) | FCT Median (P. vivax [2]; India) [h] | PCT Median (P. vivax [2]; India) [h] | cross-resistance to DHA [3] | activity against early ring stages ([3]; artemisinin-resistant and artemisinin-sensitive parasites)
CCN(CC)CCCC(C)Nc1ccnc2cc(Cl)ccc12 (stereo not shown) [Chloroquine] | 98.7 | 99.3 | 24 | 26 | 100 | PP: 100 vs. 100% | 18 | 24 |  | 
Arterolane |  |  |  |  |  |  |  |  | no cross-resistance to DHA | extremely active
